# From patent US7084167B2, “Calcium receptor active molecules and method for preparing same” (Centre National de la Rechereche Scientifique (CNRS), priority 2000, dated 2006)
# How the values were obtained:
# CHO (WT*) cells = assay: Accumulation of tritiated inositol phosphates in control CHO(WT*) cells not expressing the CaSR; type: cell-based, Chinese hamster; conditions: Cricetulus griseus, 1 h; compound 10 μM; basal level at 2 mM Ca2+ = 100%; read-out: Accumulation of (3H)-IP % of basal level, CHO (WT*)
# Procedure: (§1) The accumulation of tritiated inositol phosphates is expressed as a percentage of the basal level observed in the presence of 2 mM Ca^2+ (100%) in CHO (WT^+) or CHO(CaSR) cells.
# CaSR = target: T1, CaSR (Rattus norvegicus, UniProt P48442); assay: Accumulation of tritiated inositol phosphates in CHO(CaSR) cells; type: cell-based; conditions: for activation at 10 µM / activity at 10 µM: compound 10 μM; for activation at 10 µM: in the presence of 2 mM Ca2+; for activation at 10 µM / activation at 1 µM: CHO(CaSR) cells, read-out: Accumulation of (3H)-IP % of the 10 mM Ca2+ response ± S.E.; for activity at 10 µM: basal level at 2 mM Ca2+ = 100%, read-out: Accumulation of (1H)-IP % of basal level, CHO (CaSR); for activity greater than that of calcium (10 mM) / activation at 1 µM: compound 1 μM
# T1 construct: expressed in transfected cells; host or cells: CHO (Chinese hamster ovary) cells, CHO(CaSR)
# T1 sequence (P48442 20-1079): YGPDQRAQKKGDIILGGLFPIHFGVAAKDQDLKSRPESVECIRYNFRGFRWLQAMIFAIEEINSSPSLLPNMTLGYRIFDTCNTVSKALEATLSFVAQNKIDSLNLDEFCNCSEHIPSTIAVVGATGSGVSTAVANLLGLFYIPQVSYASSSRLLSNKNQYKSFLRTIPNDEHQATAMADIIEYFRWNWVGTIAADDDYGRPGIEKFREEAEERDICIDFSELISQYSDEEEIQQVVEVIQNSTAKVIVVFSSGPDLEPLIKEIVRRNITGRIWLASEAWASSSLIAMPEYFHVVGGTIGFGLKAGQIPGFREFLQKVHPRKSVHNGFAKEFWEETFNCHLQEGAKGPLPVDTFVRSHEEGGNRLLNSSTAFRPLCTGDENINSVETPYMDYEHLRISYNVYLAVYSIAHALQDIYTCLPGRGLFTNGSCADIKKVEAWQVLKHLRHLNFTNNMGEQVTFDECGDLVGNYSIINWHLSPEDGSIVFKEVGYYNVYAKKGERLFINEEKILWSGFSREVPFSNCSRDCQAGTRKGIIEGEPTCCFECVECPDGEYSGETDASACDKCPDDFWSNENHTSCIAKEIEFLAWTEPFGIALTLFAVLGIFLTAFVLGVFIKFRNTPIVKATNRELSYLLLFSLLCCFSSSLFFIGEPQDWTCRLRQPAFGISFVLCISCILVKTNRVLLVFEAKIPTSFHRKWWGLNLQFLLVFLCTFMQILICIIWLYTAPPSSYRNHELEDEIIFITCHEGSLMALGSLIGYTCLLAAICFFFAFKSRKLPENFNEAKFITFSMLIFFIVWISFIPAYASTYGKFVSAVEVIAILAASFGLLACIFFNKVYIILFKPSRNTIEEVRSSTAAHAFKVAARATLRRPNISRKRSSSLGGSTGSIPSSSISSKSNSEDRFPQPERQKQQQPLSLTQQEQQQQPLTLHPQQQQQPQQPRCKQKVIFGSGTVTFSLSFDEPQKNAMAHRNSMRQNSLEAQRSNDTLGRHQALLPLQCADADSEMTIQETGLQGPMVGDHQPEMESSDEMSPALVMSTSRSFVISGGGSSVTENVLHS
# Description: The complementary DNA encoding rat CaSR has been isolated from a rat striatum cDNA library (Ruat et al, Proc. Natl. Acad. Sci., 1995). This receptor is identical, in terms of its amino acid sequence, to that expressed in the other tissues. Transfected Chinese hamster ovary (CHO) cells expressing rat CaSR (CHO(CaSR)) have been characterized and the chemical signals (second messengers) induced by activation of this receptor have been analyzed. Thus, a biochemical test for measuring the accumulation of tritiated inositol phosphates, [^3H]IPs, in response to activation of the receptor has been developed (Ruat et al, J. Biol. Chem., 1996; Ferry et al, Biochem. Biophys. Res. Common., 1997).
# The calcimimetic activity of the compounds was estimated by measuring the accumulation of tritiated inositol phosphates, […] Ca^2+, in CHO(CaSR) cells (Ferry et al, Biochem Biophys Res Commun, 1997).
# This activation was compared with that induced by the compound NPS-R-568, a reference calcimimetic used at a concentration of 10 μM (Table 1) (Ferry et al, Biochem Biophys Res Commun, 1997; Nemeth et al, Proc Natl Acad Sci USA, 1997).
# The calcimimetic activity of the PHD/AK compounds is compared with that of a reference compound, NPS-R-568, used at the same concentration and under the same experimental conditions. This activity is expressed as a percentage of the activity of 10 mM of Ca^2+. The means±standard errors of the means of 2 to 5 independent manipulations are indicated. The experiments were carried out in the presence of 2 mM of Ca^2+.
# as §1
# [1] = target: T2, receptors of the parathyroid (Rattus norvegicus, UniProt P48442); conditions: rats; cited from earlier work
# T2 construct: from tissue; host or cells: parathyroid gland of rats (in vivo)
# T2 sequence (P48442 20-1079): T1 sequence (P48442 20-1079)
# [2] = rats; cited from earlier work
# [3] = clinical trials phase I-II; cited from earlier work
# [4] = patients (men) suffering from chronic renal failure; cited from earlier work
# [5] = oral, menopausal women with primary hyperparathyroidism; cited from earlier work
Compound,activation at 10 µM (CaSR) [%],activity at 10 µM (CaSR) [%],activity greater than that of calcium (10 mM) (CaSR),activation at 1 µM (CaSR) [%],activity at 10 µM (CHO (WT*) cells) [%],further results
CC(NCc1cc2ccccc2n1C)c1cccc2ccccc12 (stereo not drawn) [AK 43],79 ± 13,401 ± 16,–,–,109 ± 2,–
COc1cccc([C@@H](C)NCCCc2ccccc2)c1 [NPS R-467],–,–,–,–,–,"selectivity, receptors of the parathyroid compared with those of the thyroid gland [1]: more selective"
COc1cccc([C@@H](C)NCCCc2ccccc2Cl)c1.Cl [NPS R-568],106 ± 15,454 ± 33,–,–,110 ± 9,osteitis fibrosa [2]: reduces or eliminates osteitis fibrosa; bioavailability [3]: low; PTH concentrations [4]: reduces PTH concentrations; concentrations of PTH [5]: lower; concentrations of free serum Ca2+ ions [5]: lower
"C[C@@H](NCc1cc2ccccc2[nH]1)c1cccc2ccccc12.Cl.Cl [PHD 337-R, (R)-N-[(indole-2-yl)methyl]-N-[1-(1-naphthyl)ethyl]amine.HCl]",–,588 ± 129,50%,73 ± 10,130 ± 9,melting point: 204 °C
C[C@H](NCc1cc2ccccc2[nH]1)c1cccc2ccccc12 [PHD 337-S],32 ± 5,225 ± 7,–,3 ± 2,132 ± 1,–
CC(NCc1cc2ccccc2[nH]1)c1cccc2ccccc12.Cl.Cl (stereo not drawn) [PHD 337],90 to 100,444 ± 101,50%,69 ± 9,147 ± 14,–
COc1ccc(S(=O)(=O)n2c(CNC(C)c3cccc4ccccc34)cc3ccccc32)cc1OC (stereo not drawn) [PHD 338],54 ± 5,202 ± 9,–,–,111 ± 10,–

# Continued, in another order:
activation at 10 µM (CaSR) [%],activity at 10 µM (CaSR) [%],activity greater than that of calcium (10 mM) (CaSR),activation at 1 µM (CaSR) [%],Compound,activity at 10 µM (CHO (WT*) cells) [%],further results
90 to 100,482 ± 58,50%,76 ± 1,COc1cccc([C@@H](C)NCc2cc3ccccc3[nH]2)c1 [PHD 356],151 ± 7,–
55 ± 5,303 ± 42,–,–,COc1ccc2[nH]c(CNC(C)c3cccc4ccccc34)cc2c1 (stereo not drawn) [PHD 359],117 ± 8,–
87 ± 7,420 ± 70,–,–,CC(NCc1cc2cc(F)ccc2[nH]1)c1cccc2ccccc12 (stereo not drawn) [PHD 361],133 ± 3,–
60 ± 1,325 ± 67,less active,6 ± 3,CC(NCc1cc2cc(Cl)ccc2[nH]1)c1cccc2ccccc12.Cl.Cl (stereo not drawn) [PHD 363],125 ± 12,–
77 ± 1,388 ± 85,–,–,CC(NCC1Cc2ccccc2N1)c1cccc2ccccc12 (stereo not drawn) [PHD 368],126 ± 6,–
